Results from paper PMC7536268, “Increased Antimicrobial Activity of Colistin in Combination With Gamithromycin Against Pasteurella multocida in a Neutropenic Murine Lung Infection Model” (Frontiers in Microbiology, 2020).
Where a name gives a salt, the structure may show the parent alone. Read-outs that look alike come from different tables or passages of the source.

What was measured:
[1] = test system: Pasteurella multocida strains; assay: MIC by broth microdilution (CLSI); type: cell-based; conditions: drug alone, against three strains (D18, T5, and WJ11)
Description: The susceptibility of the selected P. multocida isolates and the quality control isolate (ATCC 25922) to colistin, gamithromycin, cefquinome, enrofloxacin, tilmicosin, tylosin tartrate, and florfenicol alone was determined using the microdilution method in broth (conducted in triplicate) according to the guiding principles of the CLSI. Based on the action mechanism of each drug, the antimicrobial activity of colistin or cefquinome (drug A) in combination with gamithromycin, enrofloxacin, tilmicosin, tylosin tartrate, or florfenicol (drug B) was determined with the checkerboard method, according to the minimal inhibitory concentration (MIC) of each drug. Briefly, 50 μL of MH II broth was added to each well, and 50 μL of the indicated concentration of colistin or cefquinome was added into the first well of each line. This was followed by multiproportion dilution. Next, 50-μL samples of different concentrations of gamithromycin or the other drugs mentioned above were added to the dilution medium, and a 100 μL inoculum with a cell density of ∼1 × 10^6 colony-forming units (CFU)/mL was added to each well. The plates were then incubated at 37°C for 24 h. According to the EUCAST definitive document E.Def 1.2 ([Mccullough, 2010]), the fractional inhibitory concentration (FIC) index for combined administrations was defined as the sum of the FIC of drug A and the FIC of drug B, where FIC is the MIC of the drug combined with other drugs, divided by the MIC of the drug alone.

P. multocida = test system: P. multocida; design: method as in Benoit et al., 2011; conditions: P. multocida with erm(E); ref Benoit et al., 2011; cited from earlier work
Description: Bovine respiratory disease (BRD) associated with Mannheimia haemolytica, P. multocida, and Histophilus somni is one of the most economically important diseases that occur in feedlots, and the global losses are estimated at over $3 billion per year ([Watts and Sweeney, 2010]).

[2] = Pasteurella multocida, read-out: MIC

| SMILES | MIC [1] | MIC [1, 2] [µg/mL] | MIC (P. multocida) [µg/mL] |
| --- | --- | --- | --- |
| CO/N=C(\C(=O)N[C@@H]1C(=O)N2C(C(=O)[O-])=C(C[n+]3cccc4c3CCCC4)CS[C@H]12)c1csc(N)n1 [cefquinome, Cefquinome] | more than 64 mg/L | – | – |
| CCN1CCN(c2cc3c(cc2F)c(=O)c(C(=O)O)cn3C2CC2)CC1 [enrofloxacin, Enrofloxacin] | – | > 64 | – |
| CS(=O)(=O)c1ccc([C@@H](O)[C@@H](CF)NC(=O)C(Cl)Cl)cc1 [florfenicol] | – | 2 to 4 | – |
| CC[C@H]1OC(=O)C[C@@H](O)[C@H](C)[C@@H](O[C@@H]2O[C@H](C)[C@@H](O)[C@H](N(C)C)[C@H]2O)[C@@H](CCN2C[C@H](C)C[C@H](C)C2)C[C@@H](C)C(=O)/C=C/C(C)=C/[C@@H]1CO[C@@H]1O[C@H](C)[C@@H](O)[C@@H](OC)[C@H]1OC [tilmicosin] | – | 2 to 4 | ≥ 512 |
| CCCNC[C@]1(O)[C@H](C)O[C@@H](O[C@H]2[C@H](C)[C@@H](O[C@@H]3O[C@H](C)C[C@H](N(C)C)[C@H]3O)[C@](C)(O)C[C@@H](C)CN[C@H](C)[C@@H](O)[C@](C)(O)[C@@H](CC)OC(=O)[C@@H]2C)C[C@@]1(C)OC [tulathromycin] | – | – | ≥ 512 |
| CC[C@H]1OC(=O)C[C@@H](O)[C@H](C)[C@@H](O[C@@H]2O[C@H](C)[C@@H](O[C@H]3C[C@@](C)(O)[C@@H](O)[C@H](C)O3)[C@H](N(C)C)[C@H]2O)[C@@H](CC=O)C[C@@H](C)C(=O)/C=C/C(C)=C/[C@@H]1CO[C@@H]1O[C@H](C)[C@@H](O)[C@@H](OC)[C@H]1OC [tylosin, tylosin tartrate] | – | > 64 | ≥ 512 |
